According to patent US11124523B2, “2,6-dioxaspiro [4,5] decane derivatives and preparation method therefor and pharmaceutical applications thereof” (SHANDONG LUYE PHARMACEUTICAL CO., LTD., priority 2017, dated 2021):
pEC50, pIC50: −log10 of the molar value. Counter-ions that a name gives are not always drawn. Like-named read-outs stand apart in the source and are kept apart here.

Key:
[1] = molecular target: hERG potassium channels (Homo sapiens (Human), UniProt Q12809); assay: Effects on hERG potassium channels (Qpatch, CHO-hERG cells); assay type: cell-based; conditions: highest test concentration 40 μM, read-out: IC50 representing the blocking effects of hERG potassium currents
hERG potassium channels, sequence (Q12809 whole entry): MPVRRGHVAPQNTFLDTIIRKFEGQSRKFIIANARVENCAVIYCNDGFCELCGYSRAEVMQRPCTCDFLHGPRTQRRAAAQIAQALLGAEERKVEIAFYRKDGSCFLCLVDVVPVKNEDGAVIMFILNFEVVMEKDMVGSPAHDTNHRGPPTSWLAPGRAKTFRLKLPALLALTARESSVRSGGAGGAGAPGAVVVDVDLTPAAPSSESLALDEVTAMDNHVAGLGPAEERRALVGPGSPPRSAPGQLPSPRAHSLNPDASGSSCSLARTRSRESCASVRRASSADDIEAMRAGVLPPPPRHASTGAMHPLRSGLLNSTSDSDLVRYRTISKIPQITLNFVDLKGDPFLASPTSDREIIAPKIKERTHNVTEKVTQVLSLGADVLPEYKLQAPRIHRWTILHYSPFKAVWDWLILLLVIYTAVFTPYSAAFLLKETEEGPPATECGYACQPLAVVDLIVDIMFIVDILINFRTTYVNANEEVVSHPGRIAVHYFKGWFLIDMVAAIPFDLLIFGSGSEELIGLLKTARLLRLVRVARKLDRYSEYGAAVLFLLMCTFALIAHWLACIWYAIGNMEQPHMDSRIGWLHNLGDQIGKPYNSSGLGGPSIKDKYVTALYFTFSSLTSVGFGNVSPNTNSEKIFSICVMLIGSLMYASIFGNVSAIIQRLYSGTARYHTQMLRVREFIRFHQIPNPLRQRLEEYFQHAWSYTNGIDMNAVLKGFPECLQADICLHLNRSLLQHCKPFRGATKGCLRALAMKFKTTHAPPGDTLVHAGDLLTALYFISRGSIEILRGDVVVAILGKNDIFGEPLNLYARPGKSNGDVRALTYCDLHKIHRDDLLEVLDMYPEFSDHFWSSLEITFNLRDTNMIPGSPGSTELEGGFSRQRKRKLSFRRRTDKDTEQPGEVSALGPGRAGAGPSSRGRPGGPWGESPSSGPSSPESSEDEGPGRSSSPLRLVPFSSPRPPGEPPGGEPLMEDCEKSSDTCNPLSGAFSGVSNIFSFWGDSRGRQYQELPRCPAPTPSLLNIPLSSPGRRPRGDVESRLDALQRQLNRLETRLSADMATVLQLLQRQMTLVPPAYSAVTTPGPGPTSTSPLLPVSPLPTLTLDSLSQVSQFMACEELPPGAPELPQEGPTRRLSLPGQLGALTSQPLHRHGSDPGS
Description: 5.1 Experimental Purpose: To test the blocking effects of the compounds of the present disclosure on hERG potassium currents.
a. CHO-hERG cells were cultured in a 175 cm^2 culture flask. When the cells were grown to a density of 60 to 80%, the culture solution was removed, and the cells were washed once with 7 mL of PBS (phosphate buffer solution), and then 3 mL of a cell digestion solution (Detachin) was added for digestion of the cells.
b. After completely digested, the cells were neutralized by adding 7 mL of the culture solution and then centrifuged, the supernatant was removed, and then 5 mL of the culture solution was added for resuspension to ensure a cell density of 2 to 5×10^6 cells/mL.
The single-cell high-impedance sealing and whole-cell pattern formation processes were both carried out automatically by the Qpatch instrument. After the whole-cell recording pattern was obtained, the cells were clamped at −80 millivolts. A preceding voltage of −50 millivolts was applied for 50 milliseconds prior to application of a depolarizing stimulus of +40 millivolts for 5 seconds, and then the cells were repolarized to −50 millivolts and maintained for 5 seconds and then returned back to −80 millivolts. This voltage stimulation was applied every 15 seconds, and data were recorded for 2 minutes, and thereafter the extracellular fluid was administered and data were recorded for 5 minutes, and then the administration process was started. The compound was administered for 2.5 minutes at each test concentration from the lowest test concentration. After all the concentrations of the compound were administered, […] of Cisapride was administered as a positive comparative compound. At least three cells (n>3) were tested for each concentration.
a. A 20 mM compound mother solution was diluted with the extracellular fluid, wherein 5 μL of the 20 mM compound mother solution was taken and diluted 500 times to 40 μM by adding 2495 μL of the extracellular fluid thereto, and then 3-fold serial dilutions were performed sequentially in the extracellular fluid containing 0.2% DMSO to obtain a final concentration to be tested.
b. The highest test concentration was 40 μM, and there were six concentrations in total, i.e., 40, 13.33, 4.44, 1.48, 0.49, and 0.16 μM, respectively.
c. The DMSO content in the final test concentration was not more than 0.2%. This concentration of DMSO had no effect on the hERG potassium channel.
The experimental data were analyzed by XLFit software.

[2] = molecular target: CYP2D6 (Homo sapiens (Human), UniProt P10635); assay: Inhibition of cytochrome P450 isoenzymes, CYP2D6; assay type: in vitro ADME
CYP2D6, sequence (P10635 whole entry, canonical isoform): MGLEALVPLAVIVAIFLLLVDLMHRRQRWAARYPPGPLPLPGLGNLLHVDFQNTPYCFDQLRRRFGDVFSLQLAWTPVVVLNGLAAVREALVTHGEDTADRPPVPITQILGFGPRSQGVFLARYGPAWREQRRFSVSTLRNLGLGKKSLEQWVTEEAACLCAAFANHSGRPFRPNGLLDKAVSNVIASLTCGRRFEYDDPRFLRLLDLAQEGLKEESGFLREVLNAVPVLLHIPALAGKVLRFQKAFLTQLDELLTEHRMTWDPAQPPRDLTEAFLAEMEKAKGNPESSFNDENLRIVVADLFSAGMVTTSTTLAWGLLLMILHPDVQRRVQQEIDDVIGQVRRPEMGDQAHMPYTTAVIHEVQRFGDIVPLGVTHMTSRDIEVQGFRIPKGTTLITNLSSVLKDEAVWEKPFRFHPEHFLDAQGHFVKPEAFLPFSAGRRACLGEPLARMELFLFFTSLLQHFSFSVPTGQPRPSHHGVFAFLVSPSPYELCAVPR
Description: (§1) 4.1 Experimental Purpose: To test the inhibitory effects of the compounds of the present disclosure on different isoforms of human cytochrome P450 isoenzymes
(§2) 1) The activities of CYP1A2, 2C9, 2C19, 2D6, and 3A4 were measured using a standard substrate method. In each reaction, the enzyme activities were measured in the presence and absence of the substance to be tested, wherein a single sample was measured at a total of eight test concentrations. A 5-in-1 mixed inhibitor was used.
(§3) 2) An incubation matrix comprising microsomes, a substrate, and an inhibitor or the compound to be tested was pre-incubated at 37° C. for 5 minutes, and then NADPH was added to start the reaction.
(§4) 3) After the incubation, acetonitrile with an internal standard was added to stop the reaction.
(§5) 4) Metabolites generated by the substrates were measured by using the LC-MS/MS method, and the peak area ratio of each metabolite to the internal standard was evaluated and the inhibition rate and IC50 were calculated.

[3] = molecular target: human μ-subtype opioid receptor (hMOR) (Homo sapiens (Human), UniProt P35372); assay: MOR β-arrestin-2 agonist activity test; assay type: cell-based; conditions: for Emax: maximum effect of enkephalin DAMGO was 100%, about 0% = no actual agonist activity
Description: Test 2: β-Arrestin-2 Agonist Activity Test
2.1 Experimental Purpose: To test the β-arrestin-2 agonist activity of the compounds of the present disclosure on the human μ-subtype opioid receptor (hMOR).
a. All samples were dissolved in DMSO to a storage concentration of 10 mM.
b. A series of diluted samples were formulated on a 384-well LDV plate. A total of 11 concentration points were obtained by 3.162-fold gradient dilution.
c. The series of diluted samples were transferred to an experimental plate by using an Echo machine, wherein 60 nL of the compound was transferred corresponding to each well.
d. 60 nL of 3.33 mM DAMGO (as HPE) and 60 nL of DMSO (as ZPE) were transferred to the corresponding positions on the experimental plate by using the Echo machine.
The experiment was performed using PathHunter Detection Kit from DiscoveRX Cooperation (DiscoveRX #93-0213C3)
a. Assay buffer and PathHunter detection reagent required for the experiment were formulated.
Assay Buffer: 1×DPBS buffer
PathHunter Detection Reagent: The kit was provided therein with three constituents.
c. The experimental plate was centrifuged at 300 rpm for 30 s and incubated at room temperature for 2 hours.
d. 6 μL of the PathHunter detection reagent was added to each well of the experimental plate.
e. The experimental plate was centrifuged at 300 rpm for 30 seconds, then left at room temperature for 60 minutes, and then read on the Envision.

[4] = molecular target: CYP2C19 (Homo sapiens (Human), UniProt P33261); assay: Inhibition of cytochrome P450 isoenzymes, CYP2C19; assay type: in vitro ADME; conditions: >50 μM: inhibitory effect less than 50% at 50 μM; read-out: CYP 2C19 IC50
CYP2C19, sequence (P33261 whole entry): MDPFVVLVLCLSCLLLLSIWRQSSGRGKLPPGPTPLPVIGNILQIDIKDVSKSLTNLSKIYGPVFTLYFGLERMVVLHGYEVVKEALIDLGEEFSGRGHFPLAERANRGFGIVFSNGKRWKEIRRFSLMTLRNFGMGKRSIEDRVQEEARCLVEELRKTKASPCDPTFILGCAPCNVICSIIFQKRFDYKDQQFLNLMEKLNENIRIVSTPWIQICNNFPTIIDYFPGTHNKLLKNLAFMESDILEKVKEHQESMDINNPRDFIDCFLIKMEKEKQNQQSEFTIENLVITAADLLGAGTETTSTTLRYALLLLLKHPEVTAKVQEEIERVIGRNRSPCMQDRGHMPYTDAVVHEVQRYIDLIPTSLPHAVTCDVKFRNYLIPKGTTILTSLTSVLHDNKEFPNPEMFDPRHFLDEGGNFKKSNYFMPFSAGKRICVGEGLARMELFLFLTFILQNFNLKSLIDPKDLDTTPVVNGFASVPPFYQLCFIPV
Description: as §1, §2, §3, §4, §5

[5] = >30000 nM = greater than the highest detection concentration, read-out: MOR β-arrestin-2 EC50

Row | Structure (SMILES) | pIC50 [1] | pIC50 ([2]; read-out: CYP 2D6 IC50) | pEC50 [3, 5] | Emax [3] | pIC50 [4] | pIC50 [2] | pEC50 [3]
1 | c1ccc([C@]2(CCNCc3scc4c3CCC4)CCO[C@]3(CCOC3)C2)nc1 [(+)-2] | < 4.40 | 4.33 | < 4.52 | ~0% | < 4.30 | – | –
2 | Fc1ccc([C@]2(CCNCc3cccc(Cl)c3)CCO[C@]3(CCOC3)C2)nc1 [(+)-16] | – | 4.90 | < 4.52 | ~0% | 4.47 | – | –
3 | Cc1cccc(CNCC[C@@]2(c3ccc(F)cn3)CCO[C@]3(CCOC3)C2)c1 [Hydrochloride Salt of (+)-22] | 4.73 | – | – | ~0% | < 4.30 | 4.71 | < 4.52
4 | Fc1ccc([C@]2(CCNCc3cccc(F)c3)CCO[C@]3(CCOC3)C2)nc1 [Hydrochloride Salt of (+)-23] | – | 4.75 | < 4.52 | ~0% | < 4.30 | – | –
5 | COc1ccsc1CNCC[C@@]1(c2ccccn2)CCOC2(CCCC2)C1 [compound 1, Oliceridine, reference compound] | 5.26 | – | – | 4.5% | < 4.30 | 5.34 | –
